Where a name gives a salt, the structure may show the parent alone. Bounds are passed on as bounds.

One assay in a line: MIC of test compounds against various organisms. Format: cell-based.
Settings: not given
Here is the method:
The MIC (μg/ml) of test compounds against various organisms was determined: S. aureus Oxford, S. aureus WCUH29, S. pneumoniae 1629, S. pneumoniae N1387, S. pneumoniae ERY 2, E. faecalis I, E. faecalis 7,H. influenzaeQ1, H. influenzae NEMC1, M. catarrhalis 1502.
The MIC is the lowest concentration that inhibits growth of the organism. Regarding `COc1ccc2nccc(NC(=O)C3CCN(CC(O)c4cnc5c(c4)NC(=O)CS5)CC3)c2n1` (stereo not drawn) [Example 15, R and S-1-[2-Hydroxy-2-(2-oxo-2,3-dihydro-1H-pyrido[2,3-b][1,4]thiazin-7-yl)-ethyl]-piperidine-4-carboxylic acid (6-methoxy-[1,5]naphthyridin-4-yl)-amide hydrochloride], the MIC is ≤ 4 µg/mL.

As to `COc1ccc2nccc(NC(=O)C3CCN(CCc4cc5c(cn4)OCCO5)CC3)c2n1` [Example 16, 1-[2-(2,3-Dihydro-[1,4]dioxino[2,3-c]pyridin-7-yl)-ethyl]-piperidine-4-carboxylic acid (6-methoxy-[1,5]naphthyridin-4-yl)-amide hydrochloride], the MIC is ≤ 4 µg/mL.

Consider `COc1ccc2nccc(OCC3CCN(CCc4ccc5c(c4)OCCO5)CC3)c2n1` [Example 21, 8-{1-[2-(2,3-Dihydro-benzo[1,4]dioxin-6-yl)-ethyl]-piperidin-4-ylmethoxy}-2-methoxy-[1,5]naphthyridine hydrochloride], for which the MIC is ≤ 64 µg/mL.

Still in this assay, the particulars now being: versus all these organisms (10-strain panel); read-out: MIC.
Regarding `COc1ccc2nccc(NC(=O)C3CCN(CCc4ccc5c(c4)NC(=O)CS5)CC3)c2n1` [Example 1, 1-[2-(3-Oxo-3,4-dihydro-2H-benzo[1,4]thiazin-6-yl)-ethyl]-piperidine-4-carboxylic acid (6methoxy-[1,5]naphthyridinylaramide oxalate], the MIC was ≤ 4 µg/mL.

For the molecule `COc1ccc2nccc(NC(=O)C3CCN(CCc4ccc5c(c4)OCO5)CC3)c2n1` [Example 2, 1-(2-Benzo[1,3]dioxol-5yl-ethyl)-piperidine4-carboxylic acid (6-methoxy-[1,5]naphthyridin-4-yl)amide, dioxalate], the MIC was ≤ 4 µg/mL.

As for `COc1ccc2nccc(NC(=O)C3CCN(CCc4ccc5c(c4)OCCO5)CC3)c2n1` [Example 3, 1-[2-(2,3-Dihydro-benzo[1,4]dioxin-6-yl)-ethyl]-piperidine-4-carboxylic acid (6-methoxy-[1,5]naphthyridin-4-yl)-amide, dioxalate], the MIC was ≤ 4 µg/mL.

For `COc1ccc2nccc(NC(=O)C3CCN(CCc4nc5c(F)cccc5[nH]4)CC3)c2n1` [Example 4, 1-[2-(4-Fluoro-1H-benzoimidazol-2-yl)-ethyl]-piperidine-4-carboxylic acid (6-methoxy-[1,5]naphthyridin-4-yl)-amide, dioxalate], the MIC is ≤ 4 µg/mL.

Take `COc1ccc2nccc(NC(=O)C3CCN(CCc4ccc5nsnc5c4)CC3)c2n1` [Example 5, 1-(2-Benzo[1,2,5]thiadiazol-5-yl-ethyl)-piperidine-4-carboxylic acid (6-methoxy-[1,5]naphthyridin-4-yl)-amide, dioxalate]: the MIC was ≤ 64 µg/mL.

Consider `COc1ccc2nccc(NC(=O)C3CCN(CCc4ccc5c(c4)oc(=O)n5C)CC3)c2n1` [Example 6, 1-[2-(3-Methyl-2-oxo-2,3-dihydro-benzooxazol-6-yl)-ethyl]-piperidine-4-carboxylic acid (6-methoxy-[1,5]naphthyridin-4-yl)-amide, dioxalate], for which the MIC is ≤ 64 µg/mL.

Consider `COc1ccc2nccc(NC(=O)C3CCN(CCc4ccc5c(c4)NC(=O)CO5)CC3)c2n1` [Example 7, 1-[2-(3-Oxo-3,4-dihydro-2H-benzo-[1,4]oxazin-6-yl)ethyl]-piperidine-4-carboxylic acid (6-methoxy-[1,5]naphthyridin-4-yl)-amide, dioxalate], for which the MIC was ≤ 16 µg/mL.

In the case of `COc1ccc2nccc(NC(=O)C3CCN(CCc4cnc5ccccc5n4)CC3)c2n1` [Example 9, 1-(2-Quinoxalin-2-yl-ethyl)piperidine-4-carboxylic acid (6-methoxy-[1,5]naphthyridin-4-yl)-amide], the MIC is ≤ 64 µg/mL.

For the molecule `COc1ccc2nccc(NC(=O)C3CCN(CC(=O)c4ccc5c(c4)NC(=O)CS5)CC3)c2n1` [Example 11, 1-[2-Oxo-2-(3-oxo-3,4dihydro-2H-benzo[1,4]thiazin-6-yl)-ethyl]-piperidine-4-carboxylic acid (6-methoxy-[1,5]naphthyridin-4-yl)-amide oxalate], the MIC is ≤ 64 µg/mL.

Regarding `COc1ccc2nccc(NC(=O)C3CCN(CC(O)c4ccc5c(c4)NC(=O)CS5)CC3)c2n1` (stereo not drawn) [Example 12, R,S-1-[2-Hydroxy-2-(3-oxo-3,4-dihydro-2H-benzo[1,4]thiazin-6-yl)-ethyl]-piperidine-4-carboxylic acid (6methoxy-[1,5]naphthyridin-4-yl)-amide oxalate], the MIC is ≤ 4 µg/mL.

As for `COc1ccc2nccc(NC(=O)C3CCN(CC(=O)c4ccc5c(c4)NC(=O)CO5)CC3)c2n1.O=C(O)C(=O)O` [Example 13, 1-[2-Oxo-2-(3-oxo-3,4-dihydro-2H-benzo[1,4]oxazin-6-yl)ethyl]-piperidine-4-carboxylic acid (6-methoxy-[1,5]naphthyridin-4-yl)-amide oxalate], the MIC is ≤ 4 µg/mL.

As to `COc1ccc2nccc(NC(=O)C3CCN(CC(=O)c4ccc5c(c4)OCCO5)CC3)c2n1` [Example 14, 1-[2-(2,3-Dihydro-benzo[1,4]dioxin-6-yl)-2-oxo-ethyl]-piperidine-4-carboxylic acid (6methoxy-[1,5]naphthyridin-4-yl)-amide oxalate], the MIC was ≤ 16 µg/mL.

`COc1ccc2nccc(OCC3CCN(CC(O)c4ccc5c(c4)NC(=O)CS5)CC3)c2n1` (stereo not drawn) [Example 17, R,S-6-{1-Hydroxy-2-[4-(6methoxy-[1,5]naphthyridin-4-yloxymethyl)-piperidin-1-yl]-ethyl}-4H-benzo[1,4]thiazin-3-one hydrochloride]: the MIC is ≤ 16 µg/mL.

With `COc1ccc2nccc(NC(=O)C3CCN(CC(O)c4ccc5c(c4)OCCO5)CC3)c2n1` (stereo not drawn) [Example 18, R,S-1-[2-(2,3-Dihydro-benzo[1,4]dioxin-6-yl)-2-hydroxy-ethyl]-piperidine-4-carboxylic acid (6-methoxy-[1,5]naphthyridin-4-yl)-amide oxalate], the MIC is ≤ 4 µg/mL.

As for `COc1ccc2nccc(NC(=O)C3CCN(CC(O)c4ccc5c(c4)NC(=O)CO5)CC3)c2n1` (stereo not drawn) [Example 19, R,S-1-[2-Hydroxy-2-(3-oxo-3,4-dihydro-2H-benzo[1,4]oxazin-6-yl)-ethyl]-piperidine-4-carboxylic acid (6-methoxy-[1,5]naphthyridin-4-yl)-amide oxalate], the MIC is ≤ 16 µg/mL.

These data come from US7186730B2, “Bicyclic nitrogen-containing heterocyclic derivatives for use as antibacterials” (priority 2001, dated 2007).
